Data set [1] in a line: Cytotoxicity against human HEK293 cells assessed as cell viability at 10 uM after 24 hrs by MTT assay. In kind it is cell-based. Particulars: read-out: GI.
A further data set deals with COLO 205. Kind of data set: Cytotoxicity against human COLO205 cells assessed as cell viability at 10 uM after 24 hrs by MTT assay. As to conditions: for inhibition of growth at 10 µM: COLO 205, 24 h, read-out: GI. The format is functional.
The subject of the next data set is K562. Kind of data set: Cytotoxicity against human K562 cells assessed as cell viability at 10 uM after 24 hrs by MTT assay. In kind it is functional. Particulars: for inhibition of growth at 10 µM: K562, 24 h, read-out: GI.
Data set [2] has as its system MCF7. Kind of data set: Cytotoxicity against estrogen receptor-positive human MCF7 cells assessed as cell viability at 10 uM after 24 hrs by MTT assay. The format is functional. As to conditions: for inhibition of growth at 10 µM: MCF7, 24 h, read-out: GI.
Data set [3] can be described thus: (§1) Cytotoxicity against human IMR32 cells assessed as cell viability at 10 uM after 24 hrs by MTT assay. The format is functional. Particulars: IMR-32, 24 h, read-out: GI.
Another data set concerns HepG2. As to the kind of experiment: Cytotoxicity against human HepG2 cells assessed as cell viability at 10 uM after 24 hrs by MTT assay. As to conditions: for inhibition of growth at 10 µM: HepG2, 24 h, read-out: GI. In kind it is functional.
Data set [4] relates to MDA-MB-231. Kind of data set: Cytotoxicity against estrogen receptor-negative human MDA-MB-231 cells assessed as cell viability at 10 uM after 24 hrs by MTT assay. In kind it is functional. Particulars: for inhibition of growth at 10 µM: MDA-MB-231, 24 h, read-out: GI.
For data set [5], the system named is MDA-MB-231. Kind of data set: Cytotoxicity against estrogen receptor-negative human MDA-MB-231 cells after 24 hrs by MTT assay. In kind it is functional, cell-based. Particulars: MDA-MB-231, 24 h.
Data set [6] concerns MCF7. As to the kind of experiment: Cytotoxicity against estrogen receptor-positive human MCF7 cells after 24 hrs by MTT assay. The format is functional, cell-based. Particulars: MCF7, 24 h.
In a further data set the test system is IMR-32. The data set is described as §1. The format is functional.

Activity calls are given as the source filed them. The calls are words filed in the database; no cut-off is given here.

Consider `COc1ccc(C#CCOC(c2cccs2)c2cccnc2Cl)cc1` (stereo not given), for which the inhibition at 24 h, 10 µM in [1] is -1.1%. Further, the inhibition of growth at 10 µM amounted to 31.6% in the data set with COLO 205; 33.8% in the data set with K562; 64.7% in the data set with MCF7 [2]; 20.7% in data set [3]; 13.9% with HepG2; 70.1% in the data set on MDA-MB-231 [4]. In addition, the IC50 with MDA-MB-231 [5] (read-out: IC50) worked out at 1160 nM; in the data set with MCF7 [6] it was 1720 nM.

As for `Oc1ccccc1C#CCOC(c1cccs1)c1cccnc1Cl` (stereo not given), the inhibition at 24 h, 10 µM in data set [1] is 6%. Besides, the inhibition of growth at 10 µM in the data set with COLO 205 stood at 28.5%; in the data set on K562, 40.6%; in the data set on MCF7 [2], 67.7%; in [3], 34.4%; in the data set on HepG2, 13.6%; in the data set with MDA-MB-231 [4] it was 70.8%. The IC50 in the data set with MDA-MB-231 [5] (read-out: IC50) stood at 1100 nM; in the data set on MCF7 [6], 1510 nM.

On to `CCOC(=O)c1c[nH]nc1C#CCOC(c1cccs1)c1cccnc1Cl` (stereo not given), for which the inhibition at 24 h, 10 µM in data set [1] turned out to be 0.4%. For the same compound, the inhibition of growth at 10 µM in the data set on COLO 205 amounted to 45.8%; with K562, 54.8%; in the data set with MCF7 [2], 33.8%; in data set [3] it was 30.9%; with HepG2, 34.3%; in the data set on MDA-MB-231 [4], 35.3%.

As to `Clc1ncccc1C(OCC#Cc1ccc(I)cc1)c1cccs1` (stereo not given), the inhibition at 24 h, 10 µM in data set [1] stood at 0%. Besides, the inhibition of growth at 10 µM with COLO 205 was found to be 39%; in the data set with K562, 48%; with MCF7 [2] it was 45.6%; in data set [3], 60%; in the data set with HepG2, 54.2%; in the data set on MDA-MB-231 [4], 52.2%.

Regarding `CCOC(=O)c1sc2c(c1C#CCOC(c1cccs1)c1cccnc1Cl)CCC2` (stereo not given), the inhibition at 24 h, 10 µM in data set [1] is -1.6%. Further, the inhibition of growth at 10 µM with COLO 205 came to 46%; in the data set with K562, 65.1%; with MCF7 [2], 25%; in data set [3], 25.2%; in the data set with HepG2 it was 21.9%; in the data set on MDA-MB-231 [4], 37.9%.

As for `COc1cccc2c1C(=O)c1c(O)c3c(c(O)c1C2=O)C[C@@](O)(C(=O)CO)C[C@@H]3O[C@H]1C[C@H](N)[C@H](O)[C@H](C)O1` [DOXORUBICIN], the 50% inhibitory concentration (IC50) with MDA-MB-231 [5] amounted to 650 nM; in the data set on MCF7 [6], 440 nM.

In the case of `Nc1ccccc1C#CCOC(c1cccs1)c1cccnc1Cl` (stereo not given), the inhibition at 24 h, 10 µM in data set [1] came out at 3.2%. Also, the inhibition of growth at 10 µM with COLO 205 stood at 37.8%; with K562, 43.8%; with MCF7 [2], 69.3%; in data set [3], 47.6%; with HepG2, 36.2%; with MDA-MB-231 [4] it was 73.3%. The IC50 in the data set on MDA-MB-231 [5] (read-out: IC50) was 950 nM; in the data set with MCF7 [6] it was 1290 nM.

As for `O=[N+]([O-])c1ccccc1C#CCOC(c1cccs1)c1cccnc1Cl` (stereo not given), the inhibition at 24 h, 10 µM in data set [1] came to 0.1%. Moreover, the inhibition of growth at 10 µM came out at 16.5% in the data set on COLO 205; 18.9% in the data set on K562; 34.8% in the data set on MCF7 [2]; 53.2% in data set [3]; 46.2% in the data set on HepG2; 48% with MDA-MB-231 [4].

`O=C(O)c1ccccc1C#CCOC(c1cccs1)c1cccnc1Cl` (stereo not given): in [1], the inhibition at 24 h, 10 µM worked out at 2.7%. In addition, the inhibition of growth at 10 µM amounted to 34.7% in the data set on COLO 205; 40.2% with K562; 35.9% with MCF7 [2]; 38.1% in [3]; 33.1% in the data set on HepG2; 47.9% in the data set on MDA-MB-231 [4].

With `O=C(O)c1ccc(C#CCOC(c2cccs2)c2cccnc2Cl)cc1` (stereo not given), the inhibition at 24 h, 10 µM in [1] amounted to 4.8%. Further, the inhibition of growth at 10 µM came to 44% in the data set on COLO 205; 57.7% in the data set on K562; 35.9% in the data set on MCF7 [2]; 39.6% in data set [3]; 38.2% in the data set with HepG2; 38.9% in the data set on MDA-MB-231 [4].

Regarding `CCOC(=O)c1c(C#CCOC(c2cccs2)c2cccnc2Cl)sc2c1CCCC2` (stereo not given), the inhibition at 24 h, 10 µM in [1] was -0.9%. In addition, the inhibition of growth at 10 µM was found to be 32.1% in the data set with COLO 205; 53% in the data set with K562; 31.8% with MCF7 [2]; 22.5% in [3]; 29.5% in the data set on HepG2; 46.4% with MDA-MB-231 [4].

For the compound `O=C(O)COC(c1cccs1)c1cccnc1Cl` (stereo not given), the “growth inhibition (GI)” value in the data set on COLO 205, with K562, in the data set on MCF7 [2], in the data set on IMR-32, with HepG2 and in the data set on MDA-MB-231 [4] was “inactive” throughout.

With `CCOC(=O)COC(c1cccs1)c1cccnc1Cl` (stereo not given), the “growth inhibition (GI)” value in the data set on COLO 205, in the data set on K562, with MCF7 [2], in the data set with IMR-32, with HepG2 and with MDA-MB-231 [4] was “inactive” in each case.

On to `OC(c1cccs1)c1cccnc1Cl` (stereo not given), for which the “growth inhibition (GI)” value in the data set with COLO 205, in the data set with K562, in the data set on MCF7 [2], in the data set on IMR-32, in the data set on HepG2 and in the data set with MDA-MB-231 [4] was “inactive” in each case.

Regarding `O=C1Nc2ccc(C#CCOC(c3cccs3)c3cccnc3Cl)cc2C1=O` (stereo not given), in data set [1], the inhibition at 24 h, 10 µM turned out to be 0.8%. The inhibition of growth at 10 µM in the data set with COLO 205 was 49.3%; in the data set on K562, 61.1%; in the data set with MCF7 [2], 71.9%; in data set [3], 58.4%; in the data set on HepG2, 44.8%; in the data set with MDA-MB-231 [4], 72.3%. Besides, the IC50 was 990 nM with MDA-MB-231 [5] (read-out: IC50) and 1050 nM in the data set with MCF7 [6].
